Measured values published in PubChem BioAssay (NCI).
Where “and” joins values, the source holds several entries; their conditions need not be identical. Equal entries are not always repeated.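 Cells were grown in 96-well plates and exposed to each compound for 48 hours at five concentrations; endpoints were interpolated linearly between bracketing concentrations, or set to the highest concentration if not reached. GI50 marks 50% less growth. At the TGI there is no net growth.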

How the values were obtained:
Assay in all cases: inhibition of tumour cell growth, NCI panel, 48 h
TK-10 renal = tested on: TK-10 renal
SF-295 CNS = tested on: SF-295 CNS
SK-MEL-2 melanoma = tested on: SK-MEL-2 melanoma
OVCAR-8 ovarian = tested on: OVCAR-8 ovarian
NCI-H522 lung = tested on: NCI-H522 lung
OVCAR-3 ovarian = tested on: OVCAR-3 ovarian
CCRF-CEM leukemia = tested on: CCRF-CEM leukemia
LOX IMVI melanoma = tested on: LOX IMVI melanoma
EKVX NSCLC = tested on: EKVX NSCLC
MDA-MB-231 breast = tested on: MDA-MB-231 breast

| Structure (SMILES) | TGI (TK-10 renal) [µM] | TGI (SF-295 CNS) [µM] | TGI (SK-MEL-2 melanoma) [µM] | TGI (OVCAR-8 ovarian) [µM] | TGI (NCI-H522 lung) [µM] | TGI (OVCAR-3 ovarian) | TGI (CCRF-CEM leukemia) [µM] | TGI (LOX IMVI melanoma) [µM] | TGI (EKVX NSCLC) [µM] | TGI (MDA-MB-231 breast) [µM] | GI50 (TK-10 renal) [µM] | GI50 (SF-295 CNS) [µM] | GI50 (SK-MEL-2 melanoma) [µM] | GI50 (OVCAR-8 ovarian) [µM] | GI50 (NCI-H522 lung) [nM] | GI50 (CCRF-CEM leukemia) | GI50 (MDA-MB-231 breast) [µM] | GI50 (LOX IMVI melanoma) [µM] | GI50 (EKVX NSCLC) [µM] |
| --- | --- | --- | --- | --- | --- | --- | --- | --- | --- | --- | --- | --- | --- | --- | --- | --- | --- | --- | --- |
| C1=CC(=P(c2ccccc2)(c2ccccc2)c2ccccc2)C=C1 | 50.9 | 30.8 | 30.3 | 69.2 | 10.1 | 23.7 µM | 13.4 | 24.6 | 82.5 |  |  |  |  |  |  |  |  |  |  |
| CC(C)Cc1cnc(CC(C)C)c(=O)[nH]1 | > 100 | > 100 | > 100 | > 100 |  | > 100 µM | > 100 | > 100 | > 100 | > 100 |  |  |  |  |  |  |  |  |  |
| N#Cc1nc(CCc2nc(C#N)c(N)o2)oc1N | > 10 | > 10 |  | > 10 | > 10 |  | > 10 | > 10 | > 10 | > 10 |  |  |  |  |  |  |  |  |  |
| CN1CCCC2[C@@H]3CCC4c5nonc5CC[C@]4(C)C3CC[C@@]21C (stereo not given in full) | > 100 | > 100 | > 100 | > 100 | > 100 |  |  |  | > 100 |  |  |  |  |  |  |  |  |  |  |
| N=C1CCCC1C(=S)SCCC(N)=O (stereo not given) | > 100 | > 100 | > 100 | > 100 | > 100 | > 100 µM | > 100 |  | > 100 | > 100 |  |  |  |  |  |  |  |  |  |
| COc1ccc(-c2nc3ccccc3s2)cc1OC |  | 88.2 | > 100 | > 100 |  |  | > 100 | > 100 |  | > 100 |  |  |  |  |  |  |  |  |  |
| CCN(CC)C(=S)SSC(C)C | 38 | 49 | 62 | 35.4 | 1.34 |  | 30.8 | 24.1 | 70.4 | 32.5 | 20.3 | 17.9 | 23.3 | 15.1 | 29.5 | 4.26 µM | 14.6 | 4.67 | 27.4 |
| CC(=O)N1[C@H](C(=O)O)CS[C@H]1c1ccc(F)cc1 | > 100 | > 100 |  | > 100 |  | > 100 µM | > 100 | > 100 |  |  |  |  |  |  |  |  |  |  |  |
| CC(C)(C)C#COC(=O)c1ccccc1 |  | > 100 | > 100 | > 100 | > 100 | > 100 µM | > 100 | > 100 | > 100 |  |  |  |  |  |  |  |  |  |  |
| O=c1c(Cc2ccccc2)c(O)cc2n1CCC2 | > 100 | > 100 |  | > 100 | > 100 | > 100 µM | > 100 | > 100 | > 100 |  |  |  |  |  |  |  |  |  |  |
| N/N=C(/Cc1ccccc1)NNO | > 100 | > 100 | > 100 |  |  | > 100 µM | > 100 | > 100 | > 100 |  |  |  |  |  |  |  |  |  |  |
| COc1cc(C)c2c(c1)CN1CN2Cc2cc(OC)cc(C)c21 |  | > 100 | > 100 | > 100 | > 100 | 54.2 µM | > 100 | > 100 | > 100 |  |  |  |  |  |  |  |  |  |  |
| O=C(Nc1ccc(Cl)cc1C(F)(F)F)C(=O)Nn1c(=S)[nH]c2ccccc2c1=O | > 100 | > 100 | > 100 | > 100 |  | > 100 µM | > 100 | > 100 |  | > 100 |  |  |  |  |  |  |  |  |  |
| O=C(c1ccccc1)C1N=NN(Cc2ccccc2[N+](=O)[O-])C1C(=O)c1ccccc1 (stereo not given) | > 100 | > 100 | > 100 | > 100 | > 100 | > 100 µM | > 100 | > 100 | > 100 |  |  |  |  |  |  |  |  |  |  |
| Cc1ccc(C2=CC(=O)c3ccccc3C2=O)n1-c1ccccc1 | > 100 | > 100 |  | > 100 | > 100 | > 100 µM | 84.5 | > 100 | > 100 |  |  |  |  |  |  |  |  |  |  |
| CC(=O)Nc1ccc(C2CC(c3ccc([N+](=O)[O-])cc3)=Nc3ccccc3S2)cc1 (stereo not given) | 44.4 | 35 | 32.9 | 35.4 |  | 67.4 µM | 56 | 32.3 | > 100 |  |  |  |  |  |  |  |  |  |  |
| Cc1cc2c(c(C(=O)O)c1C)-c1cccc(Cl)c1C2=O | > 100 | > 100 | > 100 | > 100 | > 100 | > 100 µM | > 100 | > 100 | > 100 |  |  |  |  |  |  |  |  |  |  |
| Cn1c(=O)oc2cc(C3CCC(=O)N3Cc3csc(-c4ccccc4)n3)ccc21 (stereo not given) | > 100 | > 100 | > 100 | > 100 | > 100 |  | > 100 | > 100 | > 100 |  |  |  |  |  |  |  |  |  |  |
| Cc1cc(Cl)ccc1NC(=O)CCCC(=O)C1C/C(=N/O)CC/C1=N\O (stereo not given) | > 100 | > 100 | > 100 | > 100 | > 100 | > 100 µM | > 100 |  | > 100 |  |  |  |  |  |  |  |  |  |  |
| CCOc1c(Br)cc(Br)cc1C=C(C#N)C#N | > 10 | > 10 | > 10 | > 10 |  | > 10 µM | > 10 | 7.36 | > 10 |  |  |  |  |  |  |  |  |  |  |
| Cc1cc(=O)[nH]c(NNC(C#N)c2cccc([N+](=O)[O-])c2)n1 (stereo not given) | > 100 | > 100 | > 100 | > 100 | > 100 | > 100 µM | > 100 | > 100 |  |  |  |  |  |  |  |  |  |  |  |
| CCOc1ccc(NC(=O)/C(CC(=O)c2c[n+](=O)c3ccccc3n2[O-])=N\OCCCc2ccccc2)cc1 | > 100 | > 100 | > 100 | > 100 | > 100 | > 100 µM | > 100 |  | > 100 |  |  |  |  |  |  |  |  |  |  |
| c1ccc2c(c1)[nH]c1c2nc2ccccn21 | > 100 | > 100 | > 100 | > 100 | > 100 | 59.8 µM and > 100 µM | > 100 |  | > 100 |  |  |  |  |  |  | 48.4 µM and > 100 µM |  |  |  |
| c1cnc2c(c1)-n1cccc1C1(CCCCC1)NN2 | > 100 | > 100 | > 100 | > 100 | > 100 | > 100 µM | > 100 | > 100 | > 100 |  |  |  |  |  |  |  |  |  |  |
| O=C1c2ccccc2-c2nc3ccncc3n21 | > 100 | > 100 | > 100 | > 100 | > 100 | > 100 µM | > 100 |  | > 100 |  |  |  |  |  |  |  |  |  |  |
